According to article PMC10220492, “Investigating the mechanism of photoisomerization in jellyfish rhodopsin with the counterion at an atypical position” (The Journal of Biological Chemistry, 2023):

Target: T1, JelRh (box jellyfish rhodopsin) (Carybdea rastonii, UniProt B6F0Y5)
T1 construct: gene cubop; opsin gene in pFastBac HT vector with C-terminal rho 1D4 tag (TETSQVAPA), Sf9 baculovirus expression, DDM-solubilized, 1D4-purified, wild type reconstituted in PC liposomes
T1 sequence (B6F0Y5 1-330): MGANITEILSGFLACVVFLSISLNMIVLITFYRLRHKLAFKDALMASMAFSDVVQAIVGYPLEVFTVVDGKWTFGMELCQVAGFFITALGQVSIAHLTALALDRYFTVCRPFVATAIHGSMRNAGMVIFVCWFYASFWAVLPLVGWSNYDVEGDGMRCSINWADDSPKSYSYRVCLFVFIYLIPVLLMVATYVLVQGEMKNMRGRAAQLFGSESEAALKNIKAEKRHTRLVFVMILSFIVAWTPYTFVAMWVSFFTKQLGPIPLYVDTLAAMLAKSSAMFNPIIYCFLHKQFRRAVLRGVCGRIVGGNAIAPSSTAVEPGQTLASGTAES
Assay: low-temperature UV-visible and FTIR difference spectroscopy of reconstituted pigment
Format: binding
Settings: 77 K

## CC1=C(/C=C/C(C)=C/C=C/C(C)=C/C=O)C(C)(C)CCC1 [all-trans-retinal]
Covalent (Schiff base), all-trans bound Batho intermediate made in situ by 500 nm illumination
  low-temperature UV-visible and FTIR difference spectroscopy of reconstituted pig: the isomerization from 11-cis to all-trans retinal in JelRh is similar to that of BovRh

## CC1=C(/C=C/C(C)=C/C=C\C(C)=C\C=O)C(C)(C)CCC1 [11-cis-retinal]
Covalent (protonated Schiff base), PC liposomes, hydrated film, 11-cis-retinal added at 30 uM to membranes
  low-temperature UV-visible and FTIR difference spectroscopy of reconstituted pig: The sample after membrane preparation was reconstituted with 11-cis-retinal overnight

## CC1=C(/C=C/C(C)=C\C=C\C(C)=C\C=O)C(C)(C)CCC1 [9-cis-retinal]
Covalent (protonated Schiff base), 9-cis bound form (Iso-JelRh) made in situ by >520 nm illumination of Batho
  low-temperature UV-visible and FTIR difference spectroscopy of reconstituted pig: confirming the formation of the 9-cis bound form (so-called Iso-rhodopsin or Iso)
